Data on 54 compounds can be found in patent US8022225B2, “Triazole derivative” (Taisho Pharmaceutical Co., Ltd, priority 2004, dated 2011).

T1 sequence (P21453 whole entry): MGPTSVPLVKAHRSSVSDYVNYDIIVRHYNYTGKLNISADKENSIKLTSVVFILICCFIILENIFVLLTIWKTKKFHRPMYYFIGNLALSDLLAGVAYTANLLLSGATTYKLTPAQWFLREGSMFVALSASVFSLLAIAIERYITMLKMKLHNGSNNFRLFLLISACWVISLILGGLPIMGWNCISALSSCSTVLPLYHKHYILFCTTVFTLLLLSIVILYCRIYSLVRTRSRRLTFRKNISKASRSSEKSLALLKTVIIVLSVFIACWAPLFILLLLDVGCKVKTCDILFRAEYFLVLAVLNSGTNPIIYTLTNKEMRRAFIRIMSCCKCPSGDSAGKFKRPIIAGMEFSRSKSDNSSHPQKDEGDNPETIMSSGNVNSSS

The first experiment addresses T1, human Edg-1(S1P1) (Homo sapiens, UniProt P21453).
T1 construct: expressed in transfected cells; host or cells: HEK-293
Kind of experiment: Membrane system binding test: inhibition of [33P]-S1P binding to the membrane fraction of Edg-1(S1P1) gene transferred HEK-293 cells. The conditions noted are these: 10 μM compound; [33P]-S1P 0.1 nM; membrane fraction of Edg-1(S1P1) gene transferred HEK-293 cells; read-out: Membrane system binding test % inhibition (10 μM). How it is done: The membrane fraction was obtained by treating the cells with a solubilizing buffer (1 mM Tris/HCl, pH 7.2) for 10 minutes on ice, centrifuging the system (1000×g, 5 min) to remove insoluble fractions, and then centrifuging the system (40000×g, 30 min, 4° C.). The resulting membrane fraction was dissolved in a binding buffer (20 mM Tris-HCl, pH 7.4, 100 mM NaCl, 15 mM NaF, 2 mM deoxypyridoxine, 4 mg/mL fatty acid-free BSA), and then [^33P]-S1P (produced by ARC, end concentration 0.1 nM) and a DMSO solution of the test compound (end concentration of the compound: 10^−5 M, end concentration of DMSO: 0.1%) were added, followed by stirring the mixture and subsequently treating it for 1 hour at 30° C. Using a harvester, the membrane fraction was harvested onto unifilter-96GF/C filter (produced by Perkin-Elmer). Then, the filter with the membrane fraction was washed 4 times with the binding buffer, and the filter was dried. To the filter, 25 μL Microscint 0 (produced by Perkin-Elmer) was added, and the assay system was measured for radioactivity by means of Top Count NXT (Packard). Based on the radioactivity, the amount (A) of binding of [^33P]-S1P to the membrane fraction upon addition of the compound was calculated.
The same procedure was performed in the absence of the test compound, and the amount (B) of binding of [^33P]-S1P was calculated. Moreover, the same procedure was performed in the absence of the test compound with the use of HEK-293 cells, to which the Edg-1(S1P1) gene had not been transferred, and the background amount (C) of binding of [^33P]-S1P was calculated.
The Edg-1(S1P1) binding inhibition rate of the compound, calculated from the following equation, is shown in […]
As to `CCCOc1nnc([C@H](C)NS(=O)(=O)c2ccc(Cl)cc2)n1CC` [Compound 184], the inhibition at 10 µM came out at 44.4%.
On to `CCn1c(OC)nnc1[C@@H](C)NS(=O)(=O)c1ccc(C)nc1` [Compound 281], for which the inhibition at 10 µM is 75.5%.

The experiment is the same for the next values; noted with them: test compound 10^-5 M; [33P]-S1P 0.1 nM; 1 hour at 30° C.; HEK-293 membrane fraction.
For the compound `CCCOc1nnc([C@@H](Cc2ccc(OC)cc2)NS(=O)(=O)c2ccc(Cl)c(Cl)c2)n1CC` [Compound 528], the “Edg-1(S1P1) binding inhibition rate (membrane system binding test)” value is on record as 94.0%.

Staying with this experiment, now noted: test compound 10^-5 M; [33P]-S1P 0.1 nM; 1 hour at 30° C.; HEK-293 membrane fraction; read-out: Edg-1(S1P1) binding inhibition rate (membrane system binding test).
For the compound `CCn1c(OC)nnc1[C@@H](Cc1ccccc1)NS(=O)(=O)c1ccc(Cl)c(Cl)c1` [Compound 507], the inhibition at 10 µM stood at 96.7%.
Take `CCn1c(SC)nnc1C(Cc1ccc(C(F)(F)F)cc1)NS(=O)(=O)c1ccc(Cl)c(Cl)c1` (stereo not drawn) [Compound 518]: the inhibition at 10 µM was 83.5%.
For the compound `CCn1c(SC)nnc1C(Cc1ccc(C)cc1)NS(=O)(=O)c1ccc(Cl)c(Cl)c1` (stereo not drawn) [Compound 523], the inhibition at 10 µM was determined as 82.5%.
For `CCn1c(SC)nnc1C(Cc1ccc(Cl)c(Cl)c1)NS(=O)(=O)c1ccc(Cl)c(Cl)c1` (stereo not drawn) [Compound 524], the inhibition at 10 µM amounted to 75%.
`CCCOc1nnc([C@@H](Cc2ccc(C)cc2)NS(=O)(=O)c2ccc(Cl)c(Cl)c2)n1CC` [Compound 525]: the inhibition at 10 µM worked out at 98%.
On the same count and under the same terms, next, `CCCOc1nnc([C@@H](Cc2ccc(Cl)c(Cl)c2)NS(=O)(=O)c2ccc(Cl)c(Cl)c2)n1CC` [Compound 526]: 88.9%.
Same read-out and setting: next, `CCCOc1nnc([C@@H](Cc2ccc(OC)cc2)NS(=O)(=O)c2ccc(Cl)c(Cl)c2)n1CC` [Compound 527]: 89.7%; `CCCOc1nnc([C@@H](Cc2ccccc2)NS(=O)(=O)c2ccc(Cl)c(Cl)c2)n1CC` [Compound 529]: 100%; `CCn1c(OCC(F)(F)F)nnc1C(Cc1ccccc1)NS(=O)(=O)c1ccc(Cl)c(Cl)c1` (stereo not drawn) [Compound 530]: 97.2%.
On the same count and under the same terms, for `CCn1c(OC2CCC2)nnc1[C@@H](Cc1ccccc1)NS(=O)(=O)c1ccc(Cl)c(Cl)c1` [Compound 531] the value was 100%; for `CCn1c([C@@H](C)NS(=O)(=O)c2ccc(Cl)c(Cl)c2)nnc1S(C)(=O)=O` [Compound 532], 53.8%; for `CCn1c(OC2CCCC2)nnc1[C@@H](Cc1ccccc1)NS(=O)(=O)c1ccc(Cl)c(Cl)c1` [Compound 533], 98.9%.
As to `CCn1c(OC2CCCCC2)nnc1[C@@H](Cc1ccccc1)NS(=O)(=O)c1ccc(Cl)c(Cl)c1` [Compound 534], the inhibition at 10 µM amounted to 98.3%.
As for `CCn1c(OCCCOC)nnc1[C@@H](Cc1ccccc1)NS(=O)(=O)c1ccc(Cl)c(Cl)c1` [Compound 535], the inhibition at 10 µM worked out at 102%.
`CCOc1nnc([C@@H](Cc2ccccc2)NS(=O)(=O)c2ccc(Cl)c(Cl)c2)n1CC` [Compound 536]: the inhibition at 10 µM turned out to be 98.4%.
The same measure, in the same setting: next, `CCn1c(OC(C)C)nnc1[C@@H](Cc1ccccc1)NS(=O)(=O)c1ccc(Cl)c(Cl)c1` [Compound 537]: 101%; `CCn1c(OCCCN2CCOCC2)nnc1[C@@H](Cc1ccccc1)NS(=O)(=O)c1ccc(Cl)c(Cl)c1` [Compound 538]: 103%; `CCn1c(OCC2CC2)nnc1[C@@H](Cc1ccccc1)NS(=O)(=O)c1ccc(Cl)c(Cl)c1` [Compound 545]: 101%.
Regarding `CCn1c(OCc2ccccc2)nnc1[C@@H](Cc1ccccc1)NS(=O)(=O)c1ccc(Cl)c(Cl)c1` [Compound 546], the inhibition at 10 µM is 96.9%.
Consider `CCn1c(OC)nnc1[C@@H](Cc1ccc(-c2ccccc2)cc1)NS(=O)(=O)c1ccc(Cl)c(Cl)c1` [Compound 547], for which the inhibition at 10 µM is 85.4%.
For `CCn1c(OC)nnc1[C@@H](Cc1ccc(F)cc1)NS(=O)(=O)c1ccc(Cl)c(Cl)c1` [Compound 548], the inhibition at 10 µM was found to be 99.8%.
Consider `CCn1c(OC)nnc1[C@@H](Cc1ccc(F)c(F)c1)NS(=O)(=O)c1ccc(Cl)c(Cl)c1` [Compound 549], for which the inhibition at 10 µM was determined as 99.7%.
Take `CCn1c(OC)nnc1[C@@H](Cc1ccccc1F)NS(=O)(=O)c1ccc(Cl)c(Cl)c1` [Compound 550]: the inhibition at 10 µM amounted to 98.6%.
For the compound `CCn1c(OC)nnc1[C@@H](Cc1cccc(F)c1)NS(=O)(=O)c1ccc(Cl)c(Cl)c1` [Compound 551], the inhibition at 10 µM was 101%.
Same read-out and setting: for `CCn1c(OC)nnc1[C@@H](Cc1cc(F)cc(F)c1)NS(=O)(=O)c1ccc(Cl)c(Cl)c1` [Compound 552] the value was 97.3%; for `COc1nnc([C@@H](Cc2ccccc2)NS(=O)(=O)c2ccc(Cl)c(Cl)c2)n1C` [Compound 553], 94.2%.
As to `CCCn1c(OC)nnc1[C@@H](Cc1ccccc1)NS(=O)(=O)c1ccc(Cl)c(Cl)c1` [Compound 554], the inhibition at 10 µM amounted to 88%.

The next experiment has as its target T1, human Edg-1(S1P1). The experiment can be described thus: Cell system binding test: inhibition of [3H]-S1P binding to Edg-1(S1P1) gene transferred HEK-293 cells. As to conditions: 10 μM compound, [3H]-S1P 10 nM, read-out: Cell system binding test % inhibition (10 μM). As to the method:
Cells (1×10^5 cells/well) obtained as described above were seeded in poly-L-lysine-coated 96-well plates (Corning Incorporated), and then incubated in a 5% carbon dioxide gas incubator for 12 hours at 37° C. with the use of an MEM medium (Invitrogen Corporation) containing 100 U/mL of penicillin, 100 μg/mL of streptomycin, a 1% MEM nonessential amino acid solution, and 10% FCS. […] After the cells were washed twice with the buffer, they were solubilized with 100 μL of Opti Phase Supermix (produced by Perkin-Elmer), and measured for radioactivity by means of Micro Beta (produced by Perkin-Elmer).
Inhibition rate(%)=[1−(A−C)/(B−C)]×100
As for `CCn1c(OC)nnc1[C@@H](C)NS(=O)(=O)c1ccsc1` [Compound 342], the inhibition at 10 µM came to 88.4%.
As to `CCn1c(OC)nnc1[C@@H](C)NS(=O)(=O)c1ccc(-c2cnco2)s1` [Compound 345], the inhibition at 10 µM is 88.5%.
On to `CCn1c(OC)nnc1[C@@H](C)NS(=O)(=O)c1ccc(-c2cnco2)cc1` [Compound 346], for which the inhibition at 10 µM is 38.5%.
Take `CCCCNC(=O)Nc1ccc(S(=O)(=O)N[C@H](C)c2nnc(OC)n2CC)cc1` [Compound 353]: the inhibition at 10 µM was 23.3%.
In the case of `CCn1c(OC)nnc1[C@@H](C)NS(=O)(=O)c1cccc(C(=O)c2ccncc2)c1` [Compound 357], the inhibition at 10 µM came out at 85.6%.
Regarding `CCn1c(OC)nnc1[C@@H](C)NS(=O)(=O)c1cccc(C(=O)c2ccccn2)c1` [Compound 358], the inhibition at 10 µM turned out to be 79.6%.
In the case of `CCn1c(OC)nnc1[C@@H](C)NS(=O)(=O)c1ccc(NC(=O)NC)c(Cl)c1` [Compound 362], the inhibition at 10 µM stood at 28.2%.
On the same count and under the same terms, for `CCn1c(OC)nnc1[C@@H](C)NS(=O)(=O)c1ccc2oc(=O)ccc2c1` [Compound 363] the value was 100%.
`CCn1c(OC)nnc1[C@@H](C)NS(=O)(=O)c1ccc(Cl)c(S(N)(=O)=O)c1` [Compound 364]: the inhibition at 10 µM came to 27%.
For the compound `CCn1c(OC)nnc1[C@@H](C)NS(=O)(=O)c1ccccc1-c1ccccc1` [Compound 370], the inhibition at 10 µM came to 32.3%.
`CCn1c(OC)nnc1[C@@H](C)NS(=O)(=O)c1cccnc1` [Compound 373]: the inhibition at 10 µM is 73.4%.
Regarding `CCOc1nnc([C@@H](C)NS(=O)(=O)c2cccc(O)c2)n1CC` [Compound 419], the inhibition at 10 µM turned out to be 67.8%.
Same read-out and setting: next, `CCn1c(OC)nnc1[C@@H](C)NS(=O)(=O)c1ncc(C)s1` [Compound 421]: 71.3%; `CCn1c(OC)nnc1[C@@H](C)NS(=O)(=O)c1ccc(O)cc1` [Compound 422]: 47.5%; `CCn1c(OC)nnc1[C@@H](C)NS(=O)(=O)c1nc(C)cs1` [Compound 423]: 59.2%.
With `CCn1c(OC)nnc1[C@@H](C)NS(=O)(=O)c1ccc(C)cn1` [Compound 424], the inhibition at 10 µM was 58.7%.
`CCn1c(OC)nnc1[C@@H](C)NS(=O)(=O)c1ccc(C)o1` [Compound 425]: the inhibition at 10 µM came to 83.6%.
Regarding `CCOc1nnc([C@@H](C)NS(=O)(=O)c2cnc(C)s2)n1CC` [Compound 438], the inhibition at 10 µM came to 82.2%.
With `CCn1c(OC)nnc1C(CCc1ccccc1)NS(=O)(=O)c1ccc(Cl)cc1` (stereo not drawn) [Compound 441], the inhibition at 10 µM worked out at 14.7%.
For `CCn1c(OC)nnc1[C@@H](C)NS(=O)(=O)c1ccco1` [Compound 442], the inhibition at 10 µM was 40.2%.

Still in this experiment, the particulars now being: test compound 10^-5 M, [3H]-S1P 10 nM, 1 hour, read-out: Edg-1(S1P1) binding inhibition rate (cell system binding test).
As for `CCn1c(OC)nnc1[C@@H](CO)NS(=O)(=O)c1ccc(Cl)cc1` [Compound 483], the inhibition at 10 µM worked out at 88.9%.
Regarding `CCn1c(OC)nnc1[C@H](NS(=O)(=O)c1ccc(Cl)cc1)[C@H](C)O` [Compound 506], the inhibition at 10 µM was 88.6%.
Consider `CCn1c(OC)nnc1[C@@H](C)NS(=O)(=O)c1ccc(OC)cc1` [Compound 508], for which the inhibition at 10 µM came out at 100%.
On the same count and under the same terms, next, `CCOc1nnc([C@@H](C)NS(=O)(=O)c2ccc(Cl)cc2)n1C` [Compound 540]: 96.3%.

In general, inhibition refers to the change of the read-out against control, counted positive when it falls.
